One experiment addresses Isdop2 (Ixodes scapularis, UniProt A0ACM8DGL0). In words: cell-based. The settings on record: for inhibition at 10 µM: read-out: % Inhibition (of response to dopamine), Isdop2 screen.
Experiment [1] deals with T1, AaDOP2 (Aedes aegypti, UniProt H6D5H2). Put plainly: LOPAC1280 antagonist screen in HEK-CRELuc-Aadop2 cells. In kind it is cell-based. The settings on record: for % inhibition of DA activity (Aedes cell-based assay screen): LOPAC1280 screen hits.
The next experiment relates to Ae. aegypti L3 larvae. Put plainly: whole plant or invertebrate. The settings on record: Aedes aegypti.
For experiment [2], the target named is T1, AaDOP2. In words: HTRF cAMP accumulation concentration response assay (Cisbio Dynamic 2). It is filed as cell-based.
Where [3] appears, read: 10 μM compound, 300 nM dopamine, quadruplicate.
Setting [4] is: 10 μM compound, footnote 3 mM dopamine.
Setting [5] is: 24 h, read-out: Toxicity to Aedes aegypti larvae (mortality) 24 hours, 400 μM, L3 larvae, three independent experiments.
The mark [6] stands for this setting: 48 h, read-out: Toxicity to Aedes aegypti larvae (mortality) 48 hours, 400 μM, L3 larvae, three independent experiments.
Setting [7] is: 72 h, read-out: Toxicity to Aedes aegypti larvae (mortality) 72 hours, 400 μM, L3 larvae, three independent experiments.
Where [8] appears, read: AaDOP2 expressing cells in the presence of dopamine, No Inhibition = <10% inhibition at 3 μM test compound.
[9] abbreviates: in vitro Concentration Response Curve assay, n = 2, relative to control antagonist Amitriptyline, read-out: Avg IC50.

In general, inhibition refers to the relative decrease from the control value, in per cent. The mortality is the share of the test organisms that died. A word on the IC50: it is the point on the concentration scale where inhibition reaches its midpoint.

The structures appear in SMILES notation. Counter-ions that a name gives are not always drawn. Like-named read-outs stand apart in the source and are kept apart here.

T1 sequence (H6D5H2 entry or part of it): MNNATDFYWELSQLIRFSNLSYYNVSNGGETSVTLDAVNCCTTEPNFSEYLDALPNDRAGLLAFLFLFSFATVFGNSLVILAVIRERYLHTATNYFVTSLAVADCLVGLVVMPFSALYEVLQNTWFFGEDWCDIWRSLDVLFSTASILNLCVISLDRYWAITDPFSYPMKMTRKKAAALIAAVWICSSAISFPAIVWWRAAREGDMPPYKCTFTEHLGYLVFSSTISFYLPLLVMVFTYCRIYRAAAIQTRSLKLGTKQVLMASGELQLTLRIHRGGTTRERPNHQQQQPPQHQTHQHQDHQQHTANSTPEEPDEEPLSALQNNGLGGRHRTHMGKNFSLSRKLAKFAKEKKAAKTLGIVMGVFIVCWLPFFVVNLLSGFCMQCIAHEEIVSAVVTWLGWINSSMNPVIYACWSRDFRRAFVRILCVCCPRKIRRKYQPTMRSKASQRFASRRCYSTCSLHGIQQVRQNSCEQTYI
Chain of Isdop2 (A0ACM8DGL0 entry or part of it): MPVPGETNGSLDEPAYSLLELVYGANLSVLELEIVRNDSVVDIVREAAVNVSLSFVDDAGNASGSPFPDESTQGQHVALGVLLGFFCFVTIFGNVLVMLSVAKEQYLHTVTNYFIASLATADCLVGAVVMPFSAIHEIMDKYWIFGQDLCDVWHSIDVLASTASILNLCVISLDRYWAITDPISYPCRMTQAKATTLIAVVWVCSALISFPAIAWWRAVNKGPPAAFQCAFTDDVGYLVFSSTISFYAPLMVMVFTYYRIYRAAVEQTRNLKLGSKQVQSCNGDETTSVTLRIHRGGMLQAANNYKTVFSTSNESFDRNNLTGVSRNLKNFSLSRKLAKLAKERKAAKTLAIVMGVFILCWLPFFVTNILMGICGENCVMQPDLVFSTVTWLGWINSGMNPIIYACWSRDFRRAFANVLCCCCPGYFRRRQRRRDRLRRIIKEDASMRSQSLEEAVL

With `CC(CN(C)C)CN1c2ccccc2CCc2ccccc21` (racemic) [Trimipramine, (±)-3-(10,11-dihydro-5H-dibenzo[b,f]azepin-5-yl)-N,N,2-trimethylpropan-1-], the inhibition at 10 µM at Isdop2 stood at 86%. Also, on AaDOP2 [1] (setting [3]), the “% of the SCH23390 effect” value is on record as 87%. The “% inhibition of DA activity (Aedes cell-based assay screen)” value (shortened to “% inhibition of DA activity”) on AaDOP2 [1] amounted to 87%.
For `CN1C2CCC1CC(OC(c1ccccc1)c1ccc(Cl)cc1)C2.Cl` (stereo not drawn) [4′-Chloro-3-alpha-(diphenylmethoxy) tropane hydrochloride], at Isdop2 (setting [4]), the “% Inhibition (of response to dopamine), Isdop2 screen” value (“% Inhibition … Isdop2 screen” for short) was 80%. The “% of the SCH23390 effect” value on AaDOP2 [1] (setting [3]) was determined as 85%.
Take `CC[C@@]1(O)C(=O)OCc2c1cc1n(c2=O)Cc2cc3ccccc3nc2-1` [(S)-(+)-Camptothecin]: the “% Inhibition … Isdop2 screen” value on Isdop2 (setting [4]) is reported as 97%. Also, the “% of the SCH23390 effect” value on AaDOP2 [1] (setting [3]) was determined as 93%.
For `CNCC[C@@H](Oc1ccccc1C)c1ccccc1` [Atomoxetine], the mortality at 400 µM in the experiment with Ae. aegypti L3 larvae (setting [5]) turned out to be 20%; in the experiment with Ae. aegypti L3 larvae (setting [6]), 30%; in the experiment with Ae. aegypti L3 larvae (setting [7]), 30%. The “IC50 ± S.E.M. (nM), HTRF cAMP assay” value at AaDOP2 [2] (setting [8]) is listed as “No Inhibition^a”.
On to `CNCCCN1c2ccccc2CCc2ccccc21` [Desipramine], for which the mortality at 400 µM is 30% with Ae. aegypti L3 larvae (setting [5]), 40% in the experiment with Ae. aegypti L3 larvae (setting [6]) and 43% in the experiment with Ae. aegypti L3 larvae (setting [7]). For the same compound, the 50% inhibitory concentration (IC50) on AaDOP2 [2] (AaDOP2 expressing cells in the presence of dopamine, No Inhibition = <10% inhibition at 3 μM test compound, read-out: IC50 ± S.E.M. (nM), HTRF cAMP assay) is 3300 nM.
For `Cc1nc2sccn2c(=O)c1CCN1CCC(=C(c2ccccc2)c2ccc(F)cc2)CC1` [Diacylglycerol kinase inhibitor I], the “% Inhibition … Isdop2 screen” value at Isdop2 is on record as 69%. Also, the “% of the SCH23390 effect” value on AaDOP2 [1] (setting [3]) is 90%.
Regarding `CC[C@H]1CN2CCc3cc(OC)c(OC)cc3[C@@H]2C[C@@H]1C[C@H]1NCCc2cc(OC)c(OC)cc21` [Emetine dihydrochloride hydrate], the inhibition at 10 µM at Isdop2 was determined as 100%. On AaDOP2 [1], the “% of the SCH23390 effect” value was 86%.
As for `COCCCC/C(=N\OCCN)c1ccc(C(F)(F)F)cc1` [Fluvoxamine], the mortality at 400 µM in the experiment on Ae. aegypti L3 larvae (setting [5]) came to 27%; in the experiment on Ae. aegypti L3 larvae (setting [6]) it was 33%; with Ae. aegypti L3 larvae (setting [7]), 43%. Further, at AaDOP2 [2] (setting [8]), the “IC50 ± S.E.M. (nM), HTRF cAMP assay” value is recorded as “No Inhibition^a”.
On to `CC(=O)[C@]1(O)Cc2c(O)c3c(c(O)c2[C@@H](O[C@H]2C[C@H](N)[C@H](O)[C@H](C)O2)C1)C(=O)c1ccccc1C3=O` [Idarubicin], for which the inhibition at 10 µM at Isdop2 is 97%. Also, the “% of the SCH23390 effect” value on AaDOP2 [1] was 83%.
As for `O=C1Cc2c([nH]c3ccc(Br)cc23)-c2ccccc2N1` [Kenpaullone], on Isdop2, the inhibition at 10 µM was found to be 68%. Further, on AaDOP2 [1] (setting [3]), the “% of the SCH23390 effect” value is given as 83%.
With `CN1CCc2ccccc2Cc2[nH]c3ccccc3c2CC1` [LE 300, 7-Methyl-6,7,8,9,14,15-hexahydro-5H-benz[d]indolo[2,3-g]azecine], the inhibition at 10 µM at Isdop2 is 100%. In addition, at AaDOP2 [1], the “% of the SCH23390 effect” value was 99% and the “% inhibition of DA activity” value is on record as 99%.
For the compound `O=C1c2c(O)ccc(O)c2C(=O)c2c(NCCNCCO)ccc(NCCNCCO)c21` [Mitoxantrone], at AaDOP2 [1] (setting [3]), the “% of the SCH23390 effect” value turned out to be 83%.
On to `O=C1C(SCCO)=C(SCCO)C(=O)c2ccccc21` [NSC 95397], for which the “% Inhibition … Isdop2 screen” value at Isdop2 came to 93%. Further, at AaDOP2 [1] (setting [3]), the “% of the SCH23390 effect” value came out at 83%.
Turning to `O=C(Nc1ccc([N+](=O)[O-])cc1Cl)c1cc(Cl)ccc1O` [Niclosamide], the inhibition at 10 µM at Isdop2 came to 100%. The “% of the SCH23390 effect” value at AaDOP2 [1] (setting [3]) was found to be 95%.
On to `CCCCCCCCCCCCCC(=O)O[C@@H]1[C@@H](C)[C@@]2(O)[C@@H](C=C(CO)C[C@]3(O)C(=O)C(C)=C[C@@H]23)[C@@H]2C(C)(C)[C@]12OC(C)=O` [Phorbol 12-myristate 13-acetate], for which the “% Inhibition … Isdop2 screen” value on Isdop2 was 75%. On AaDOP2 [1], the “% of the SCH23390 effect” value worked out at 88%.
For `Oc1cc(O)cc(/C=C/c2ccc(O)c(O)c2)c1` [Piceatannol], on Isdop2, the inhibition at 10 µM stood at 100%. On AaDOP2 [1] (setting [3]), the “% of the SCH23390 effect” value amounted to 98%.
With `Cc1nc2ccccn2c(=O)c1CCN1CCC(C(=O)c2ccc(F)cc2)CC1` [Pirenperone, 3-[2-[4-(p-fluorobenzoyl)piperidino]ethyl]-2-methyl-4h-pyrido[1,2-a]pyrimidin-4-one], at Isdop2, the inhibition at 10 µM is 87%. In addition, the “% of the SCH23390 effect” value at AaDOP2 [1] (setting [3]) was 90%. For the same compound, the “% inhibition of DA activity” value on AaDOP2 [1] came out at 90%.
As for `CN(C)CCCN1c2ccccc2Sc2ccccc21` [Promazine, N,N-dimethyl-3-(10H-phenothiazin-10-yl)-propan-1-amine], the inhibition at 10 µM at Isdop2 was 87%. Besides, on AaDOP2 [1], the “% of the SCH23390 effect” value was determined as 88% and the “% inhibition of DA activity” value came out at 88%.
Consider `CCC(=O)c1ccc2c(c1)N(CCCN(C)C)c1ccccc1S2` [Propionylpromazine, 1-[10-[3-(dimethylamino)propyl]phenothiazin-2-yl]propan-1-one], for which the inhibition at 10 µM on Isdop2 stood at 94%. At AaDOP2 [1] (setting [3]), the “% of the SCH23390 effect” value was 85%. Also, the “% inhibition of DA activity” value at AaDOP2 [1] is given as 85%.
Take `CC(C)[C@H](CO)Nc1nc(Nc2cccc(Cl)c2)c2ncn(C(C)C)c2n1` [Purvalanol A]: the “% Inhibition … Isdop2 screen” value at Isdop2 turned out to be 84%. For the same compound, the “% of the SCH23390 effect” value on AaDOP2 [1] (setting [3]) is 93%.
Turning to `Cc1nc2sccn2c(=O)c1CCN1CCC(=C(c2ccc(F)cc2)c2ccc(F)cc2)CC1` [Ritanserin, 6-[2-[4-[bis(4-fluorophenyl)methylidene]piperidin-1-yl]ethyl]-7-methyl-[1,3]thiazolo[2,3-b]pyrimidin-5-one], the inhibition at 10 µM at Isdop2 worked out at 77%. Further, on AaDOP2 [1] (setting [3]), the “% of the SCH23390 effect” value was 83%. Also, the “% inhibition of DA activity” value on AaDOP2 [1] is 83%.
As to `Cc1ccccc1Nc1nc(Nc2ccccc2C)c2ccccc2n1` [ST027415, (2-methylphenyl){2-[(2-methylphenyl)amino]quinazolin-4-yl}amine], the IC50 on AaDOP2 [2] (setting [9]) stood at 8860 nM.
As for `CCC(CC)c1nc(Nc2ccc(C(=O)OC)cc2)c2ccccc2n1` [ST029812, methyl 4-{[2-(ethylpropyl)quinazolin-4-yl]amino}benzoate], on AaDOP2 [2] (setting [9]), the IC50 was found to be 8930 nM.
Turning to `CCC(CC)c1nc(Nc2ccc(C)c(Cl)c2)c2ccccc2n1` [ST029892, (3-chloro-4-methylphenyl)[2-(ethylpropyl)quinazolin-4-yl]amine], the IC50 at AaDOP2 [2] (setting [9]) was 4510 nM.
In the case of `O=[N+]([O-])C1=Cc2ccccc2OC1c1ccc2c(c1)OCO2` (centres unmarked) [ST038696, 5-(3-nitro-2H-chromen-2-yl)-2H-benzo[d]1,3-dioxolane], on AaDOP2 [2] (setting [9]), the IC50 worked out at 5510 nM.
For the compound `N=C1SC(=Cc2cc3c(cc2Br)OCO3)C(=O)N1c1ccc(OC(F)(F)F)cc1` [ST052085, 5-[(6-bromo(2H-benzo[d]1,3-dioxolen-5-yl))methylene]-2-imino-3-[4-(trifluoromethoxy)phenyl]-1,3-thiazolidin-4-one], the IC50 at AaDOP2 [2] (setting [9]) was 74200 nM.
In the case of `CC1CCC(C(C)C)C(OC(=O)C(=O)c2ccccc2)C1` (centres unmarked) [ST070482, 5-methyl-2-(methylethyl)cyclohexyl 2-oxo-2-phenylacetate], the IC50 at AaDOP2 [2] (setting [9]) was 32400 nM.
As for `CCOC(=O)C1=C(N)Oc2c(oc(CO)cc2=O)C1c1cc([N+](=O)[O-])ccc1Cl` (centres unmarked) [ST071653, ethyl 2-amino-4-(2-chloro-5-nitrophenyl)-6-(hydroxymethyl)-8-oxo-4H-pyrano[3,2-b]pyran-3-carboxylate], the IC50 on AaDOP2 [2] (setting [9]) came to 1650 nM.
As for `COc1ccc(C(=O)Nc2nc(-c3ccc4c(c3)OCCO4)cs2)cc1OC` [ST075014, N-(4-(2H,3H-benzo[3,4-e]1,4-dioxin-6-yl)(1,3-thiazol-2-yl))(3,4-dimethoxyphenyl)carboxamide], the IC50 at AaDOP2 [2] (setting [9]) came to 8310 nM.
Consider `COc1ccc2[nH]cc(CCNC(=O)C(=O)c3c(-c4ccccc4)n(C)c4ccccc34)c2c1` [ST077642, N-[2-(5-methoxyindol-3-yl)ethyl]-2-(1-methyl-2-phenylindol-3-yl)-2-oxoacetamide], for which the IC50 on AaDOP2 [2] (setting [9]) was determined as 17600 nM.
Take `CN1CCc2c(c3ccccc3n2Cc2ccccc2)C1` [ST088437, 2-methyl-5-benzyl-1,2,3,4-tetrahydropyridino[4,3-b]indole]: the IC50 on AaDOP2 [2] (setting [9]) was 1970 nM.
In turn, `CC(=O)c1ccc2c(c1)OCO2` [ST092311, 5-acetyl-2H-benzo[d]1,3-dioxolene] had an IC50 on AaDOP2 [2] of 5820 nM.
With `c1ccc(CCNc2nc(N3CCNCC3)nc3ccccc23)cc1` [ST095663, (phenylethyl)(2-piperazinylquinazolin-4-yl)amine], the IC50 at AaDOP2 [2] (setting [9]) was 4840 nM.
For `CN1CCN(CC/C=C2/c3ccccc3Sc3ccc(S(=O)(=O)N(C)C)cc32)CC1` [Thiothixene, (9Z)-N,N-dimethyl-9-[3-(4-methylpiperazin-1-yl)propylidene]-9H-thioxanthene-2-sulfonamide], the inhibition at 10 µM on Isdop2 stood at 87%. In addition, at AaDOP2 [1], the “% of the SCH23390 effect” value turned out to be 86% and the “% inhibition of DA activity” value was 86%.
`CN(C)CCOc1ccc(/C(=C(/CCCl)c2ccccc2)c2ccccc2)cc1` [Toremifene citrate salt, (Z)-2-(4-(4-Chloro-1,2-diphenyl-1-butenyl)phenoxy)-N,N-dimethylethanamine] showed an IC50 on AaDOP2 [2] of 44900 nM.
`COc1ccc(C(CN(C)C)C2(O)CCCCC2)cc1` (centres unmarked) [Venlafaxine]: the mortality at 400 µM in the experiment with Ae. aegypti L3 larvae (setting [5]) came to 3%; in the experiment with Ae. aegypti L3 larvae (setting [6]), 7%; in the experiment with Ae. aegypti L3 larvae (setting [7]), 13%. Besides, the “IC50 ± S.E.M. (nM), HTRF cAMP assay” value at AaDOP2 [2] (setting [8]) is “No Inhibition^a”.
Take `CC1(C)CCC2=C(O1)c1ccccc1C(=O)C2=O` [beta-Lapachone]: at AaDOP2 [1] (setting [3]), the “% of the SCH23390 effect” value is reported as 86%.

(Values after US20140350081A1, “INSECT G-COUPLED RECEPTORS USEFUL AS TARGETS FOR INSECTICIDES AND COMPOUNDS AND REAGENTS IDENTIFIED USING THE SAME” (priority 2011, published 2014).)
